Measured values as given in ChEMBL document CHEMBL4483862, “Open-source discovery of chemical leads for next-generation chemoprotective antimalarials” (2018).

Test system: Plasmodium berghei
Assay: Luciferase/luciferin-expressing antifolate-resistant parasites were used to infect a culture of HepG2 cells that were pre-incubated with compounds. Infected hepatocytes emit light due to the luciferase reaction. Assay results are presented as the percent inhibition of light emission compared to control. […]
Type: functional
Details: sporozoite; for IC90: read-out: LUCIFERASE INFECTION ASSAY - IC90
[1] = read-out: LUCIFERASE INFECTION ASSAY - IC50

Row | SMILES | IC90 [µM] | IC50 [1] [µM] | also measured
1 | Nc1c(C(=O)Nc2cc(Cl)cc(Cl)c2)sc(Nc2ccccc2)c1C(=O)Nc1ccc(Cl)cc1 | > 10 | – | IC50 (FFLUC_HILL_SLOPE 1.81, FFLUC_R_SQUARED 0.586, read-out: LUCIFERASE INFECTION ASSAY - IC50): > 10 µM
2 | CCN1C(=O)N(CCCc2cccnc2)C(=O)C12CCN(Cc1cnc(-c3ccccc3)s1)CC2 | > 6.74 | – | IC50 (HEPG2TOX_HILL_SLOPE 2.98, HEPG2TOX_R_SQUARED 0.92, PBLUC_HILL_SLOPE 12.2, PBLUC_R_SQUARED 0.164, read-out: LUCIFERASE INFECTION ASSAY - IC50): 6.3 µM
3 | COC(=O)C1=C(C)NC(C)=C(C(=O)OC)C1c1cc(NC(=O)NC2CCCCC2)ccc1OC(F)F | > 10 | > 10 | –
4 | CCOC(=O)C1=C(Cn2ccnc2)NC(=O)NC1CC (stereo not given) | > 10 | > 10 | –
5 | CCCn1c(=O)n(C)c(=O)c2c(SCc3cc(=O)oc4cc(CC)ccc34)nc(C(C)(C)C)nc21 | > 10 | > 10 | –
6 | Cc1ccc(NC(=O)c2cnn(-c3cccc(Cl)c3)c2C(C)C)nc1 | 4.3 | – | IC50 (PBLUC_HILL_SLOPE 12, PBLUC_R_SQUARED 0.586, read-out: LUCIFERASE INFECTION ASSAY - IC50): 3.58 µM
7 | N#CCCNS(=O)(=O)c1ccc(C(=O)Nc2ccc(Nc3ccccc3)cc2)cc1 | 3.71 | – | IC50 (HEPG2TOX_HILL_SLOPE 10.9, HEPG2TOX_R_SQUARED 0.158, PBLUC_HILL_SLOPE 11.4, PBLUC_R_SQUARED 0.555, read-out: LUCIFERASE INFECTION ASSAY - IC50): 3.06 µM
8 | OC(CNC1CCN(Cc2ccccc2)CC1)COc1ccc(OC(F)(F)F)cc1 (stereo not given) | > 7.77 | – | IC50 (PBLUC_HILL_SLOPE 0.955, PBLUC_R_SQUARED 0.217, read-out: LUCIFERASE INFECTION ASSAY - IC50): > 7.77 µM
9 | Cc1[nH]c2ccccc2c1-c1nc(Nc2ccc3c(c2)OCCO3)sc1C | > 10 | > 10 | –
10 | COc1ccc(-c2cnc3ccc(NCc4cccc(Cl)c4)nn23)cn1 | 7.71 | – | IC50 (PBLUC_HILL_SLOPE 5.4, PBLUC_R_SQUARED 0.229, read-out: LUCIFERASE INFECTION ASSAY - IC50): 5.13 µM
11 | O=C(Nc1ccc(-c2csc(N3CCOCC3)n2)cc1)c1cccc(F)c1 | > 10 | > 10 | –
12 | Cc1ccc(-c2cnn3c(N4CCOCC4)cc(C)nc23)cc1 | > 10.7 | – | IC50 (PBLUC_HILL_SLOPE 2.15, PBLUC_R_SQUARED 0.469, read-out: LUCIFERASE INFECTION ASSAY - IC50): 5.44 µM
13 | O=C1C=CC(=O)N1c1ccc(F)cc1F | 13.8 | – | IC50 (FFLUC_HILL_SLOPE 8.62, FFLUC_R_SQUARED 0.718, PBLUC_HILL_SLOPE 4.26, PBLUC_R_SQUARED 0.573, read-out: LUCIFERASE INFECTION ASSAY - IC50): 8.24 µM
14 | CN(/N=C/c1cc(Cl)cc(Cl)c1O)c1ccc(C(F)(F)F)cc1[N+](=O)[O-] | > 8.09 | > 8.09 | –
15 | Cc1ccc(C)c(-n2cc(-c3ccc(Cl)cc3)nc2SCC(=O)c2ccc(Cl)c(Cl)c2)c1 | > 10 | – | IC50 (FFLUC_HILL_SLOPE 12.4, FFLUC_R_SQUARED 0.889, HEPG2TOX_HILL_SLOPE 8.6, HEPG2TOX_R_SQUARED 0.032, read-out: LUCIFERASE INFECTION ASSAY - IC50): > 10 µM
16 | Cc1cc(C)n(-c2ccc(CN3c4ccc(S(N)(=O)=O)cc4CC3C)cc2)n1 (stereo not given) | 1.54 | – | IC50 (HEPG2TOX_HILL_SLOPE 1.67, HEPG2TOX_R_SQUARED 0.825, PBLUC_HILL_SLOPE 15.8, PBLUC_R_SQUARED 0.537, read-out: LUCIFERASE INFECTION ASSAY - IC50): 1.34 µM
17 | Cc1cccc(C(=O)Nc2nc3ccccn3c2C(=O)NC(C)C)c1 | > 9.81 | – | IC50 (HEPG2TOX_HILL_SLOPE 2.5, HEPG2TOX_R_SQUARED 0.601, PBLUC_HILL_SLOPE 2.39, PBLUC_R_SQUARED 0.0938, read-out: LUCIFERASE INFECTION ASSAY - IC50): 6.28 µM
18 | O=C(CN1CCC(c2c[nH]c3ccccc23)CC1)Nc1ccc(Cl)c([N+](=O)[O-])c1 | 9.15 | – | IC50 (FFLUC_HILL_SLOPE 16.3, FFLUC_R_SQUARED 0.426, PBLUC_HILL_SLOPE 3.46, PBLUC_R_SQUARED 0.601, read-out: LUCIFERASE INFECTION ASSAY - IC50): 4.85 µM
19 | CCCn1c(N)c(C(=O)COC(=O)C2(c3ccc(F)cc3)CCCC2)c(=O)[nH]c1=O | 8.39 | – | IC50 (PBLUC_HILL_SLOPE 3.75, PBLUC_R_SQUARED 0.743, read-out: LUCIFERASE INFECTION ASSAY - IC50): 4.66 µM
20 | COc1ccc(CN2CCN(c3ncc(C(=O)Nc4ccc5c(c4)OCO5)s3)C2=O)cc1 | 4.14 | – | IC50 (HEPG2TOX_HILL_SLOPE 2.58, HEPG2TOX_R_SQUARED 0.97, PBLUC_HILL_SLOPE 17.4, PBLUC_R_SQUARED 0.0851, read-out: LUCIFERASE INFECTION ASSAY - IC50): 3.65 µM
21 | CCN(CC)S(=O)(=O)c1ccc(C(=O)Nc2ccc(C34CC5CC(CC(O)(C5)C3)C4)cc2)cc1 | > 10 | > 10 | –
22 | CC1Cc2ccccc2N1C(=O)CSC1=NNC(=C2N=Nc3ccccc32)N1c1ccccc1 (stereo not given) | 8.33 | – | IC50 (FFLUC_HILL_SLOPE 19.6, FFLUC_R_SQUARED 0.491, PBLUC_HILL_SLOPE 5.23, PBLUC_R_SQUARED 0.568, read-out: LUCIFERASE INFECTION ASSAY - IC50): 5.48 µM
23 | COc1ccc(C2c3c(C)nn(-c4ccccc4)c3N=C(c3ccccc3F)N2C2CC2)cc1 (stereo not given) | > 10 | – | IC50 (HEPG2TOX_HILL_SLOPE 5.27, HEPG2TOX_R_SQUARED 0.234, read-out: LUCIFERASE INFECTION ASSAY - IC50): > 10 µM

Row | SMILES | IC90 [µM] | IC50 [1] [µM] | also measured
24 | C=CCn1c(SCC(=O)c2cc(C)n(-c3ccc(OC)cc3)c2C)nc2sc(-c3ccccc3)cc2c1=O | > 10 | > 10 | –
25 | Cc1cc(C(=O)OCC(=O)NC(C)c2ccccc2)c(C)n1-c1ccccc1 (stereo not given) | > 10 | – | IC50 (HEPG2TOX_HILL_SLOPE 1.33, HEPG2TOX_R_SQUARED 0.976, PBLUC_HILL_SLOPE 3.52, PBLUC_R_SQUARED 0.43, read-out: LUCIFERASE INFECTION ASSAY - IC50): 7.39 µM
26 | O=C(Nc1nc2c(F)cc(F)cc2s1)c1cnccn1 | > 10 | > 10 | –
27 | Cc1nn(-c2ccccc2)c(Oc2ccc(Br)cc2)c1CNC1CCC(O)CC1 (stereo not given) | > 10 | > 10 | –
28 | Cc1cc(C(C)(C)C)cc(C)c1COC(=O)/C(=C/c1ccccc1)n1nnnc1C | > 10 | > 10 | –
29 | FC(F)(F)c1csc(Nc2ccc(Cl)c(Cl)c2)n1 | > 10.5 | 10.4 | –
30 | COc1ccc(C(C)(C)C)cc1NC(=O)C(=O)c1c(-c2ccccc2)cc2ccccn12 | 8.89 | – | IC50 (PBLUC_HILL_SLOPE 2.71, PBLUC_R_SQUARED 0.442, read-out: LUCIFERASE INFECTION ASSAY - IC50): 3.95 µM
31 | Cc1ccc(F)c(Nc2ncnc3sccc23)c1 | > 10 | > 10 | –
32 | CC(C)(Oc1ccc(C#N)cc1)C(=O)O | > 16.1 | > 16.1 | –
33 | NC(COCc1ccccc1)c1csc(NC(=O)Nc2ccccc2-c2ccccc2)n1 (stereo not given) | 5.31 | – | IC50 (PBLUC_HILL_SLOPE 5.09, PBLUC_R_SQUARED 0.778, read-out: LUCIFERASE INFECTION ASSAY - IC50): 3.45 µM
34 | O=C1Nc2ccccc2/C1=C/c1ccc(C(F)(F)F)cc1Cl | > 10.2 | > 10.2 | –
35 | c1ccc(-c2nnc(-c3ccccn3)nc2-c2ccccc2)cc1 | 4.22 | – | IC50 (HEPG2TOX_HILL_SLOPE 3.54, HEPG2TOX_R_SQUARED 0.979, PBLUC_HILL_SLOPE 15.1, PBLUC_R_SQUARED 0.651, read-out: LUCIFERASE INFECTION ASSAY - IC50): 3.65 µM
36 | COc1cc(NC(=O)N2CCc3nc(Nc4cc(Cl)cc(Cl)c4)ncc3C2)cc(OC)c1OC | > 6.54 | – | IC50 (PBLUC_HILL_SLOPE 1.96, PBLUC_R_SQUARED 0.41, read-out: LUCIFERASE INFECTION ASSAY - IC50): 3.52 µM
37 | CC(NC(=O)Cn1c2ccccc2c(=O)c2ccccc21)c1cc2ccccc2o1 (stereo not given) | > 10 | 6.06 | –
38 | O=C(Nc1ccc(N2CCCC2)cn1)c1cccc(Cl)c1 | 0.145 | – | IC50 (FFLUC_HILL_SLOPE 1.87, FFLUC_R_SQUARED 0.554, HEPG2TOX_HILL_SLOPE 1.22, HEPG2TOX_R_SQUARED 0.956, PBLUC_HILL_SLOPE 1.63, PBLUC_R_SQUARED 0.915, read-out: LUCIFERASE INFECTION ASSAY - IC50): 0.0377 µM
39 | COC(=O)c1c(C)[nH]c(-c2nc(NCc3ccc(C)cc3)sc2C)c1C | 8.74 | – | IC50 (HEPG2TOX_HILL_SLOPE 1.4, HEPG2TOX_R_SQUARED 0.957, PBLUC_HILL_SLOPE 3.81, PBLUC_R_SQUARED 0.59, read-out: LUCIFERASE INFECTION ASSAY - IC50): 4.91 µM
40 | CC(C)c1cc(NCc2ccccn2)n2ncc(-c3ccccc3)c2n1 | 3.94 | – | IC50 (PBLUC_HILL_SLOPE 12.5, PBLUC_R_SQUARED 0.318, read-out: LUCIFERASE INFECTION ASSAY - IC50): 3.3 µM
41 | Cc1cc(-c2csc(Nc3ccccn3)n2)c(C)n1-c1nccs1 | > 10 | > 10 | –
42 | Cc1ccccc1-c1nc2oc3ccccc3c(=O)c2c(=O)n1Cc1ccccc1 | 5.78 | – | IC50 (PBLUC_HILL_SLOPE 4.15, PBLUC_R_SQUARED 0.52, read-out: LUCIFERASE INFECTION ASSAY - IC50): 3.4 µM
43 | CN(Cc1ccccc1NC(=O)/C=C/c1cnn(-c2ccccc2)c1)C1CCCCC1 | > 10 | – | IC50 (PBLUC_HILL_SLOPE 13.5, PBLUC_R_SQUARED 0.731, read-out: LUCIFERASE INFECTION ASSAY - IC50): 8.68 µM
44 | COc1ccc(-c2cc(NC(=O)c3cc(Cl)c(Cl)[nH]3)ccc2OC)cc1 | 4.33 | 3.49 | –
45 | O=c1c2ccccc2cnn1-c1nc2ccccc2s1 | 1.01 | 0.212 | –
